These are literature values, as cited in paper PMC3349014 (Journal of the American Chemical Society, 2012).

The conditions of this data set: over 3 h.

For the substance “Ac-Im-Py-Py-γ-Im-Py-Py-β-Dp [compound 1035]”, the “Rat plasma levels after IV injection” value is listed as “drop to low percent over 3 h”. As to “Ac-Py-Py-β-Py-Im-Py-γ-Py-Py-Py-β-Im-Py-β-Dp [compound 1666]”, the “Rat plasma levels after IV injection” value is “drop to low percent over 3 h”.
